Literature values, collected in US7208523B2, “Alanine- and glycine-containing therapeutic agent for hepatitis” (Ajinomoto Co., Inc., priority 2000, dated 2007).

Details: oral administration of glycine or alanine alone; galactosamine intraabdominal

| SMILES | inhibition of hepatopathy caused by galactosamine |
| --- | --- |
| C[C@H](N)C(=O)O [alanine] | inhibits |
| NCC(=O)O [glycine] | inhibits |
